Data from patent US11066414B2, “Cot modulators and methods of use thereof” (Gilead Sciences, Inc., priority 2015, dated 2021).
Where two headings read alike, the source gives them in different places.

Tests used:
[1] = target: Human Cot (Homo sapiens (Human), UniProt P41279); test: High Throughput Cot Biochemical Assay; settings: Cot HTRF (TR-FRET KinEASE) biochemical assay, 400 μM ATP
[2] = tested on: TNFα; test: Cot Monocyte TNFα Cell Based Assay
[3] = Homo sapiens, Monocyte, read-out: EC50 TNF, LPS-stimulated human monocytes, TNFα TR-FRET
[4] = read-out: EC50 TNF, LPS-stimulated human monocytes, TNFα TR-FRET

Sequence of Human Cot (P41279 30-397): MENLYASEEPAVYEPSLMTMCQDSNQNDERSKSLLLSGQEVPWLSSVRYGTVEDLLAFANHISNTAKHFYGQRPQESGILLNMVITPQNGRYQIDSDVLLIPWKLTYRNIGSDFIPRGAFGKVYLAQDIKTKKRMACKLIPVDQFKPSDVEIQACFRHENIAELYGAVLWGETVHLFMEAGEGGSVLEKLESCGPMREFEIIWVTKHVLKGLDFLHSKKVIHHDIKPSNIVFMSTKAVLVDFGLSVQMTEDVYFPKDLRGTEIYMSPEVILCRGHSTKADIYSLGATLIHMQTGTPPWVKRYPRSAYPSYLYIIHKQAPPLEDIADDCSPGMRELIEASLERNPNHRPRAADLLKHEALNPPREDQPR

IC50 ([1]; IC50 HTRF) [nM] | EC50 [2, 3] [nM] | IC50 ([1]; read-out: IC50 HTRF) [nM] | EC50 [2, 4] [nM] | SMILES
1 | 19 |  |  | Cn1ccc2c([C@H](Nc3cc(C#N)c4ncc(C#N)c(NCC(C)(C)C(F)(F)F)c4c3)c3cn(C4(C)CC4)nn3)cccc2c1=O [Example 884, (S)-6-(((2-methyl-1-oxo-1,2-dihydroisoquinolin-5-yl)(1-(1-methylcyclopropyl)-1H-1,2,3-triazol-4-yl)methyl)amino)-4-((3,3,3-trifluoro-2,2-dimethylpropyl)amino)q uin oline-3,8-dicarbonitrile]
10 | 132 |  |  | COc1ncccc1[C@H](Nc1cc(C#N)c2ncc(C#N)c(NCC(C)(C)C)c2c1)c1cn(C2(C(F)(F)F)CC2)nn1 [Example 885, (S)-6-(((2-methoxypyridin-3-yl)(1-(1-(trifluoromethyl)cyclopropyl)-1H-1,2,3-triazol-4-yl)methyl)amino)-4-(neopentylamino)quinoline-3,8-dicarbonitrile]
3 | 30 |  |  | Cn1ccc2c([C@H](Nc3cc(C#N)c4ncc(C#N)c(NCC(C)(C)C(F)(F)F)c4c3)c3cn(C4(C(F)(F)F)CC4)nn3)cccc2c1=O [Example 886, (S)-6-(((2-methyl-1-oxo-1,2-dihydroisoquinolin-5-yl)(1-(1-(trifluoromethyl)-cyclopropyl)-1H-1,2,3-triazol-4-yl)methyl)-amino)-4-((3,3,3-trifluoro-2,2-dimethylpropyl)-amino)quinoline-3,8-dicarbonitrile]
3 | 33 |  |  | Cn1c(=O)ccc2c([C@H](Nc3cc(C#N)c4ncc(C#N)c(NCC(C)(C)C)c4c3)c3cn(C45CC(C4)C5)nn3)cccc21 [Example 887, (S)-6-(((1-(bicyclo[1.1.1]pentan-1-yl)-1H-1,2,3-triazol-4-yl)(1-methyl-2-oxo-1,2-dihydroquinolin-5-yl)methyl)amino)-4-(neopentylamino)quinoline-3,8-dicarbonitrile]
2 | 165 |  |  | CC(C)(C)CNc1c(C#N)cnc2c(C#N)cc(N[C@H](c3cn(C45CC(C4)C5)nn3)c3cccc4c(=O)[nH]ccc34)cc12 [Example 888, (S)-6-(((1-(bicyclo[1.1.1]pentan-1-yl)-1H-1,2,3-triazol-4-yl)(1-oxo-1,2-dihydroisoquinolin-5-yl)methyl)amino)-4-(neopentylamino)quinoline-3,8-dicarbonitrile]
9 | 104 |  |  | CC(C)(C)CNc1c(C#N)cnc2c(C#N)cc(N[C@H](c3cn(C4(C(F)(F)F)CC4)nn3)c3cccc4c(=O)n(C(F)F)ccc34)cc12 [Example 889, (S)-6-(((2-(difluoromethyl)-1-oxo-1,2-dihydroisoquinolin-5-yl)(1-(1-(trifluoromethyl)cyclopropyl)-1H-1,2,3-triazol-4-yl)methyl)amino)-4-(neopentylamino)quinoline-3,8-dicarbonitrile]
6 | 68 |  |  | Cn1c(=O)ccc2c([C@H](Nc3cc(C#N)c4ncc(C#N)c(NCC(C)(C)C)c4c3)c3cn(C4(C(F)(F)F)CC4)nn3)cccc21 [Example 890, (S)-6-(((1-methyl-2-oxo-1,2-dihydroquinolin-5-yl)(1-(1-(trifluoromethyl)cyclopropyl)-1H-1,2,3-triazol-4-yl)methyl)amino)-4-(neopentylamino)quinoline-3,8-dicarbonitrile]
1 | 12 |  |  | Cn1ccc2c([C@H](Nc3cc(C#N)c4ncc(C#N)c(NCC(C)(C)C)c4c3)c3cn(C45CC(C4)C5)nn3)cccc2c1=O [Example 891, (S)-6-(((1-(bicyclo[1.1.1]pentan-1-yl)-1H-1,2,3-triazol-4-yl)(2-methyl-1-oxo-1,2-dihydroisoquinolin-5-yl)methyl)amino)-4-(neopentylamino)quinoline-3,8-dicarbonitrile]
2 | 44 |  |  | C[C@@H](CF)n1cc([C@@H](Nc2cc(C#N)c3ncc(C#N)c(NCC(C)(C)C)c3c2)c2cccc3ncccc23)nn1 [Example 892, 6-(((S)-(1-((S)-1-fluoropropan-2-yl)-1H-1,2,3-triazol-4-yl)(quinolin-5-yl)methyl)amino)-4-(neopentylamino)quinoline-3,8-dicarbonitrile]
 |  | 4 | 99 | CC(C)(C)CNc1c(C#N)cnc2c(C#N)cc(N[C@H](c3cn(C(CF)CF)nn3)c3cccc4ncccc34)cc12 [Example 893, (S)-6-(((1-(1,3-difluoropropan-2-yl)-1H-1H-1,2,3-triazol-4-yl)(quinolin-5-yl)methyl)amino)-4-(neopentyl-amino)quinoline-3,8-dicarbonitrile]
 |  | 3 | 54 | CC(C)(CNc1c(C#N)cnc2c(C#N)cc(N[C@H](c3cn(C4(C(F)F)CC4)nn3)c3cccc4ncccc34)cc12)C(F)(F)F [Example 894]
3 | 30 |  |  | CC(C)(CNc1c(C#N)cnc2c(C#N)cc(N[C@H](c3cn(C4(C5CC5)CC4)nn3)c3cccc4ncccc34)cc12)C(F)(F)F [Example 896, (S)-6-(((1-([1,1′-bi(cyclopropan)]-1-yl)-1H-1,2,3-triazol-4-yl)(quinolin-5-yl)methyl)amino)-4-((3,3,3-trifluoro-2,2-dimethylpropyl)amino)quinoline-3,8-dicarbonitrile]
2 | 18 |  |  | CC(C)(CNc1c(C#N)cnc2c(C#N)cc(N[C@H](c3cn(C45CC(C4)C5)nn3)c3cccc4ncccc34)cc12)C(F)(F)F [Example 897, (S)-6-(((1-(bicyclo[1.1.1]pentan-1-yl)-1H-1,2,3-triazol-4-yl)(quinolin-5-yl)methyl)amino)-4-((3,3,3-trifluoro-2,2-dimethylpropyl)amino)quinoline-3,8-dicarbonitrile]
2 | 29 |  |  | CC(C)(C)CNc1c(C#N)cnc2c(C#N)cc(N[C@H](c3cn([C@@H]4C[C@@H]4F)nn3)c3cccc4ncccc34)cc12 [Example 899, 6-(((S)-(1-((1R,2S)-2-fluorocyclopropyl)-1H-1,2,3-triazol-4-yl)(quinolin-5-yl)methyl)amino)-4-(neopentylamino)quinoline-3,8-dicarbonitrile]
3 | 30 |  |  | Cc1ccc2c([C@H](Nc3cc(C#N)c4ncc(C#N)c(NCC(C)(C)C)c4c3)c3cn(C45CC(C4)C5)nn3)cccc2n1 [Example 900, (S)-6-(((1-(bicyclo[1.1.1]pentan-1-yl)-1H-1,2,3-triazol-4-yl)(2-methylquinolin-5-yl)methyl)amino)-4-(neopentylamino)quinoline-3,8-dicarbonitrile]
484 | 1000 |  |  | CC(C)(C)CNc1c(C#N)cnc2c(C#N)cc(N[C@H](c3cn(C45CC(C4)C5)nn3)c3cccc4nc(C(F)F)ccc34)cc12 [Example 901, (S)-6-(((1-(bicyclo[1.1.1]pentan-1-yl)-1H-1,2,3-triazol-4-yl)(2-(difluoromethyl)quinolin-5-yl)methyl)amino)-4-(neopentylamino)quinoline-3,8-dicarbonitrile]
 |  | 3 | 36 | Cc1ccc2c([C@H](Nc3cc(C#N)c4ncc(C#N)c(NCC(C)(C)C)c4c3)c3cn(C4(C)CC4)nn3)cccc2n1 [Example 902]
5 | 78 |  |  | Cc1ncsc1[C@H](Nc1cc(C#N)c2ncc(C#N)c(NCC(C)(C)C)c2c1)c1cn(C2(C(F)(F)F)CC2)nn1 [Example 904, (R)-6-(((4-methylthiazol-5-yl)(1-(1-(trifluoromethyl)cyclopropyl)-1H-1,2,3-triazol-4-yl)methyl)amino)-4-(neopentylamino)quinoline-3,8-dicarbonitrile]
 |  | 4 | 51 | Cc1nnc(C2(n3cc([C@@H](Nc4cc(C#N)c5ncc(C#N)c(NCC(C)(C)C)c5c4)c4ccc(F)nc4C)nn3)CC2)o1 [Example 907, (S)-6-(((6-fluoro-2-methylpyridin-3-yl)(1-(1-(5-methyl-l,3,4-oxadiazol-2-yl)cyclopropyl)-1H-1,2,3-triazol-4-yl)methyl)amino)-4-(neopentylamino)quinoline-3,8-dicarbonitrile]
8 | 116 |  |  | CC(C)(C)CNc1c(C#N)cnc2c(C#N)cc(N[C@H](c3cn(C4(C(F)(F)F)CC4)nn3)c3cccc4cnc(C#N)cc34)cc12 [Example 909, (S)-6-(((3-cyanoisoquinolin-5-yl)(1-(1-(trifluoromethyl)cyclopropyl)-1H-1,2,3-triazol-4-yl)methyl)amino)-4-(neopentylamino)quinoline-3,8-dicarbonitrile]
5 | 148 |  |  | CC(C)(C)CNc1c(C#N)cnc2c(C#N)cc(N[C@H](c3cn(C4(C(F)(F)F)CC4)nn3)c3ccc(C#N)c4ncccc34)cc12 [Example 910, (S)-6-(((8-cyanoquinolin-5-yl)(1-(1-(trifluoromethyl)cyclopropyl)-1H-1,2,3-triazol-4-yl)methyl)amino)-4-(neopentylamino)quinoline-3,8-dicarbonitrile]
 |  | 7 | 85 | COc1nccc2c([C@H](Nc3cc(Cl)c4ncc(C#N)c(NCC(C)(C)C)c4c3)c3cn(C45CC(C4)C5)nn3)cccc12 [Example 911, (S)-6-(((1-(bicyclo[1.1.1]pentan-1-yl)-1H-1,2,3-triazol-4-yl)(1-methoxylsoquinolin-5-yl)methyl)amino)-8-chloro-4-(neopentylamino)quinoline-3-carbonitrile]
 |  | 6 | 78 | COc1nccc2c([C@H](Nc3cc(Cl)c4ncc(C#N)c(NCC(C)(C)C)c4c3)c3cn(C4CC4)nn3)cccc12 [Example 912, (S)-8-chloro-6-(((1-cyclopropyl-1H-1,2,3-triazol-4-yl)(1-methoxylsoquinolin-5-yl)methyl)amino)-4-(neopentylamino)quinoline-3-carbonitrile]
